Data reported in publication PMC9229894, “In Silico, In Vitro, and Pharmacokinetic Studies of UBMC-4, a Potential Novel Compound for Treating against Trypanosoma cruzi” (Pathogens, 2022).
“Also recorded” adds a separate entry of the source.

Assays:
[1] = Cytotoxicity, MTT method, HepG2; format: cell-based; conditions: human, HepG2 cells, read-out: LC50 median lethal concentration HepG2
Description: Cytotoxicity of UBMC-4 was tested in HepG2, CaCo2, and huMDM cell lines according to the effect on cell growth determined by the MTT microenzimatic method, as described by others. Briefly, 2.0 × 10^4 U-937 and huMDM or 2.5 × 10^4 HepG2 and CaCo2 cells were dispensed in 200 µL into each well of a 96-well tissue culture plate containing the corresponding culture medium. Then, 100 µL/well of each compound at a concentration of […] were added and plates were incubated at 37 °C, 5% CO2. After 72 h of incubation, 20 μL of MTT (Sigma-Aldrich, St Louis, MO, USA) were added to each well and plates were incubated for 3 h at 37 °C, 5% CO2. […] The concentration of formazan was determined at 570 nm in a spectrophotometer (Varioskan Flash Multimode Reader, Thermo Scientific, Waltham, MA, USA). […] Cytotoxicity was determined according to the percentages of viability and cell growth inhibition obtained for each compound, bz, doxorubicin, or medium alone. Non-specific absorbance was corrected by subtracting the OD of the blank (culture medium). Percentages of mortality were calculated using equation, as follows: % mortality = 100 − [(O.D. of treated cells)/(O.D. of non-treated cells)] × 100. The half maximal effective concentration (EC50) was calculated by the linear regression model Probit using Graphpad Prism software.

T. cruzi epimastigotes = assay: Scanning and transmission electron microscopy of epimastigotes under nutritional stress; format: cell-based, Trypanosoma cruzi; conditions: 10 µM, nutritional stress (PBS) 6 h
Description: Epimastigotes untreated and treated with 10 uM of UBMC-4 under nutritional stress conditions (culture medium substitution for PBS for 6 h) were fixed for 2 h using 2.5% glutaraldehyde in cacodylate buffer 0.1 M. Parasites adhered for 10 min onto coverslips previously coated with 0.1% poly-L-lysin and subsequently washed with cacodylate buffer and dehydrated using 30%, 50%, 70%, and 90% (v/v) acetone for 5 min on each incubation. Subsequently, the cells were critically dried under CO2 and attached to the heel of the SEM instrument. Finally, samples were coated with a 20 nm-thick gold layer and analyzed in a Jeol JSM6010Plus-LA scanning electron microscope at 20 kV. For TEM, parasites were fixed for 2 h with glutaraldehyde and cacodylate buffer and then treated for 1 h with 1% OsO4 diluted in the same buffer. Parasites were dehydrated as above and then embedded in PolyBed-812 resin. Ultrathin sections were collected in copper grids and stained with 5% aqueous uranyl acetate and lead citrate. Samples were examined in a Jeol JEM-1400plus transmission electron microscope at 80 kV.

## Oc1ccc(-c2nc(-c3ccc4sc5ccccc5c4c3)c(-c3ccccc3)[nH]2)cc1 [UBMC-4, 4-(4-dibenzo-[b,d]-thien-2-yl-5-phenyl-1H-imidazol-2-yl)phenol]
[1]
  CC50 at 72 h: > 40 µM
T. cruzi epimastigotes
  morphology and ultra-structure changes (SEM, TEM): progressive alterations such as flagellum inactivation, cell size reduction, nuclear structure alteration, condensation of chromatin towards the nuclear periphery, vacuole formation, mitochondrial swelling with kinetoplast integrity loss; also recorded: non-reversible morphological damage
